Measured values from US9315513B2, “Benzimidazole derivatives and their pharmaceutical compositions and uses” (XUANZHU PHARMA CO., LTD., priority 2010, dated 2016).

What was measured:
[1] = tested on: gastric acid in pylorus ligated rats; assay: Inhibition effects on gastric acid in pylorus ligated rats; assay type: in vivo, Wistar rats; details: 20 mg/kg, in comparison with the solvent group
Experimental: Experimental animals: six-week old clean Wistar rats, male, 140-180 g.
Experimental samples: part of the compounds of the present invention, which structural formula and chemical name are shown in Table 1. […] Before test, these compounds were dissolved with physiological saline.
Pylorus was ligated by passing a suture beneath gastric pylorus, the drugs were immediately administered through duodenum, in which the solvent group was administered with physiological saline in 2 mL/kg, […] The animals were executed after 6 h, laparotomized, esophagus was ligated near to diaphragmatic muscle, whole stomach was taken out, washed to remove blood, stomach contents were poured out, the acidity degree of gastric acid was tested with pH test paper, the stomach contents was then centrifuged at 3000 rpm for 10 min. The volume of the supernatant was metered, and 1 mL of the supernatant was titrated with 0.01 mol/L NaOH solution, phenolphthalein was used as indicator, the volume of NaOH was recorded, and the total acidity degree and total acid output of gastric juice were calculated. Gastric juice total acidity degree (mmol/L)=consumed volume of NaOH solution (mL)*0.01 mol/L (NaOH concentration)/1 mL (supernatant volume)*1000; 1 h total acid output (mmol/h)=total acidity degree (mmol/L)*gastric juice volume (mL)/6 h/1000.

[2] = tested on: reflux esophagitis in rats; assay: Effects on reflux esophagitis in rats; assay type: in vivo, Wistar rats; details: 20 mg/kg, in comparison with the model group
Experimental: The rats were etherized, laparotomized, pylorus ligated, and ligated at the part between glandular stomach and rumen. After ligation, the drugs were immediately administered through duodenum, in which the groups of the test samples were administered with test samples in 20 mg/kg, the model group was administered with the same volume of solvent, and the abdomens were then closed. The rats were released to the fasting cage, subjected to fasting and water deprivation for 5 h and then executed by air embolism. The stomach and esophagus were taken out together, fixed with 1% formaldehyde in esophagus for 1 h, and then the injury of esophagus was observed.

[3] = In vivo pharmacokinetic test in rats; set-up: species or system Wistar rats; details: rat, in vivo
Experimental: Experimental animals: male Wistar rats, 6 rats/compound, body weight 180-220 g, purchased from Shandong University, certificate no.: SCXK ( ? ) 20090001.
Experimental samples: Compound 1, Compound 29 and Compound 30 of the present invention, each of them is prepared according to the methods of the above examples, and dissolved in physiological saline before test.
Administration: as for intravenous push (I.V), Compound 1, Compound 29, Compound 30 were administered in a dose of 5 mg/kg, and a volume of 2 mL/kg; as for intragastric administration (P.O), Compound 1, Compound 29, Compound 30 were administered in a dose of 5 mg/kg, and a volume of 2 mL/kg. The rats were fasted without water deprivation for […] administration, and fed after 4 hours from the administration.
Blood collection: 0 h, 0.083 h, 0.25 h, 0.5 h, 1 h, 2 h, 4 h, 8 h, 24 h, at each time point, about 150 μL of whole blood was collected, centrifuged at 4° C. and 8000 rpm for 6 min using a low-temperature high-speed centrifuge, the separated plasma was frozen and stored at −80° C. in a refrigerator.
Analysis of plasma samples: as for Compound 1, Compound 29, Compound 30, 50 μL of plasma was taken, added with 120 μL internal standard solution (Tolbutamide, 5 ng/mL MeOH solution), subjected to 1500 rpm vortex for 2 min, then centrifuged at 14000 rpm for 5 min, the supernatant was collected, and analyzed by using LC-MS/MS. Calculation formula: absolute bioavailability F %=[AUC]INF(PO)*Dose(IV)/[AUC]INF(IV)*Dose(PO)
Wherein, AUCINF represents area under drug-time curve0→∞; Cmax represents peak drug concentration in blood; Tmax represents a time for reaching peak drug concentration in blood; F % represents absolute bioavailability; CL represents clearance rate; Vss represents apparent volume of distribution; T1/2 represents half-life period.

[4] = tested on: gastric acid; details: cited from earlier work
[5] = tested on: gastric acid secretion; details: cited from earlier work

| Compound | Inhibition effect on the gastric acid secretion in pylorus ligated rats (conclusion) [1] | Protection effect on reflux esophagitis in rats (conclusion) [2] | In vivo pharmacokinetic properties (conclusion) [3] | Time to achieve the maximum acid inhibition effect [4] | Duration of action ([4]; compared with Omeprazole) | Activity against gastric acid secretion in vitro relative to Omeprazole [5] |
| --- | --- | --- | --- | --- | --- | --- |
| COCCCOc1ccnc(C[S+]([O-])c2nc3cc4c(cc3[nH]2)OCC4)c1C (stereo not drawn) [Compound 1, 2-[[4-(3-methoxylpropoxy)-3-methylpyridin-2-yl]methylsulfinyl]-6,7-dihydro-3H-benzofuro[5,6-d]imidazole] | significant inhibition effect | good protection effects on esophagus | good in vivo pharmacokinetic properties |  |  |  |
| COCCCOc1ccnc(C[S+]([O-])c2nc3ccccc3[nH]2)c1C (stereo not drawn) [Rabeprazole] |  |  |  | ≤ 5 min | shorter than that of Omeprazole | 2-10 times |
